# Where a name gives a salt, the structure may show the parent alone.
# System: influx of neutrophils to the lung in LPS-challenged rats
# Assay: Rat LPS neutrophilia model
# Type: in vivo
# Settings: intratracheal, LPS aerosol 100 ug/ml, in at least one of the range of conditions tested, significance p<0.05
# Description: Rat LPS Neutrophilia Model
# The effect of compounds on the influx of neutrophils to the lung in LPS-challenged rats is evaluated as follows. The test compound is suspended in one of the following solutions: 0.5% tween 80/PBS, 0.5% tween 80/saline, 10% EtOH/saline (with pH adjusted to 2.0, or 8.0 with HCl, or unadjusted), Saline (pH 2.0, 6.5 or 8.0, 0.5% Tragacanth, 1% DMSO/20% Encapsin/Saline, or acidified 5% Tragacanth. The suspension process may be aided by the use of a glass homogenizer. For intratracheal administration, the animals are anesthetized with inhaled isoflurane and placed in a supine position, the trachea is intubated with a steel gavage needle (1.5 inch, 22 gauge, small ball) or a Penn-Century Microsprayer Aerosolizer (model IA-1B) and 200 ul of dosing solution is delivered. The animals are visually monitored during the recovery process, which typically occurs within two minutes. It is noted that the test compounds may be alternatively administered via the microsprayer in a dry powder blend with a suitable excipient, such as lactose.
# Rats treated with compound or vehicle (15 min-24 hours pretreatment) are exposed to an LPS aerosol (100 ug/ml) for 15 min. Four hours later the rats are euthanized with pentobarbital (100 mg/kg, i.p.) and the airways are lavaged with 5 washes of 5 ml of phosphate buffered saline. The harvested cells are stained (Diffquick) and counted to determine total and differential cell data. […] Inhibition of neutrophil levels relative to no compound controls is calculated based on the differential counts.
# The data is obtained as % inhibition using a particular concentration and pretreat time.
row,SMILES,inhibition of neutrophilia (neutrophil levels in airway lavage relative to no compound controls)
1,"CCN(CC)CCCNc1nc(-c2cc(C(=O)NCC3CC3)ccc2C)c2ccc(=O)n(-c3c(F)cccc3F)c2n1 [Example 138, N-(cyclopropylmethyl)-3-[2-{[3-(diethylamino)propyl]amino}-8-(2,6-difluorophenyl)-7-oxo-7,8-dihydropyrido[2,3-d]pyrimidin-4-yl]-4-methylbenzamide trifluoroacetate]",statistically nonsignificant inhibition of neutrophilia
2,"CCN(CC)CCCNc1nc(-c2cc(C(=O)NC3CC3)cc(F)c2C)c2ccc(=O)n(-c3c(F)cccc3F)c2n1 [Example 185, N-cyclopropyl-3-[2-{[3-(diethylamino)propyl]amino}-8-(2,6-difluorophenyl)-7-oxo-7,8-dihydropyrido[2,3-d]pyrimidin-4-yl]-5-fluoro-4-methylbenzamide]",statistically nonsignificant inhibition of neutrophilia
3,"Cc1ccc(C(=O)NC2CCC2)cc1-c1nc(N2CCC(N3CCC(C)CC3)CC2)nc2c1ccc(=O)n2-c1c(F)cccc1F [Example 175, N-cyclobutyl-3-[8-(2,6-difluorophenyl)-2-(4-methyl-1,4′-bipiperidin-1′-yl)-7-oxo-7,8-dihydropyrido[2,3-d]pyrimidin-4-yl]-4-methylbenzamide]",inactive
4,"CCCNC(=O)c1ccc(C)c(-c2nc(N3CCC(N4CCC(C)CC4)CC3)nc3c2ccc(=O)n3-c2c(F)cccc2F)c1 [Example 166, 3-[8-(2,6-difluorophenyl)-2-(4-methyl-1,4′-bipiperidin-1′-yl)-7-oxo-7,8-dihydropyrido[2,3-d]pyrimidin-4-yl]-4-methyl-N-propylbenzamide]",statistically significant inhibition of neutrophilia
5,"CCN(CC)CCCNc1nc(-c2cc(C(=O)N[C@@H](C)c3ccccc3)ccc2C)c2ccc(=O)n(-c3c(F)cccc3F)c2n1 [Example 149, 3-[2-{[3-(diethylamino)propyl]amino}-8-(2,6-difluorophenyl)-7-oxo-7,8-dihydropyrido[2,3-d]pyrimidin-4-yl]-4-methyl-N-[(1S)-1-phenylethyl]benzamide]",inactive
6,"Cc1ccc(C(=O)NC2CCCC2)cc1-c1nc(NCc2ncc[nH]2)nc2c1ccc(=O)n2-c1c(F)cccc1F [Example 76, N-cyclopentyl-3-{8-(2,6-difluorophenyl)-2-[(1H-imidazol-2-ylmethyl)amino]-7-oxo-7,8-dihydropyrido[2,3-d]pyrimidin-4-yl}-4-methylbenzamide]",statistically nonsignificant inhibition of neutrophilia
7,"CCN(CC)CCCNc1nc(-c2cc(C(=O)NCC3CCCC3)ccc2C)c2ccc(=O)n(-c3c(F)cccc3F)c2n1 [Example 132, N-(cyclopentylmethyl)-3-[2-{[3-(diethylamino)propyl]amino}-8-(2,6-difluorophenyl)-7-oxo-7,8-dihydropyrido[2,3-d]pyrimidin-4-yl]-4-methylbenzamidetrifluoroacetate]",statistically nonsignificant inhibition of neutrophilia
8,"CCN(CC)CCCNc1nc(-c2cc(C(=O)Nc3ccc(F)cc3)ccc2C)c2ccc(=O)n(-c3c(F)cccc3F)c2n1 [Example 160, 3-[2-{[3-(diethylamino)propyl]amino}-8-(2,6-difluorophenyl)-7-oxo-7,8-dihydropyrido[2,3-d]pyrimidin-4-yl]-N-(4-fluorophenyl)-4-methylbenzamide]",statistically significant inhibition of neutrophilia
9,"CCCNC(=O)c1cc(F)c(C)c(-c2nc(NCCCN(CC)CC)nc3c2ccc(=O)n3-c2c(F)cccc2F)c1 [Example 181, 3-[2-{[3-(diethylamino)propyl]amino}-8-(2,6-difluorophenyl)-7-oxo-7,8-dihydropyrido[2,3-d]pyrimidin-4-yl]-5-fluoro-4-methyl-N-propylbenzamide]",statistically nonsignificant inhibition of neutrophilia
10,"CCCNCCNc1nc(-c2cc(C(=O)NC3CC3)ccc2C)c2ccc(=O)n(-c3c(F)cccc3F)c2n1 [Example 24, N-cyclopropyl-3-(8-(2,6-difluorophenyl)-7-oxo-2-{[2-(propylamino)ethyl]amino}-7,8-dihydropyrido[2,3-d]pyrimidin-4-yl)-4-methylbenzamide]",statistically nonsignificant inhibition of neutrophilia
11,"Cc1ccc(C(=O)NC(C)C)cc1-c1nc(N2CCC(N3CCC(C)CC3)CC2)nc2c1ccc(=O)n2-c1c(F)cccc1F [163(c), 3-[8-(2,6-difluorophenyl)-2-(4-methyl-1,4′-bipiperidin-1′-yl)-7-oxo-7,8-dihydropyrido[2,3-d]pyrimidin-4-yl]-4-methyl-N-(1-methylethyl)benzamide]",statistically nonsignificant inhibition of neutrophilia
12,"CCN(CC)CCCNc1nc(-c2cc(C(=O)NCCF)ccc2C)c2ccc(=O)n(-c3c(F)cccc3F)c2n1 [Example 133, 3-[2-{[3-(diethylamino)propyl]amino}-8-(2,6-difluorophenyl)-7-oxo-7,8-dihydropyrido[2,3-d]pyrimidin-4-yl]-N-(2-fluoroethyl)-4-methylbenzamidetrifluoroacetate]",statistically significant inhibition of neutrophilia
13,"Cc1ccc(C(=O)Nc2nccs2)cc1-c1nc(NCc2ncc[nH]2)nc2c1ccc(=O)n2-c1c(F)cccc1F [79(c), 3-{8-(2,6-difluorophenyl)-2-[(1H-imidazol-2-ylmethyl)amino]-7-oxo-7,8-dihydropyrido[2,3-d]pyrimidin-4-yl}-4-methyl-N-1,3-thiazol-2-ylbenzamide]",statistically significant inhibition of neutrophilia
14,"CNC1CCN(c2nc(-c3cc(C(=O)NC(C)C)ccc3C)c3ccc(=O)n(-c4c(F)cccc4F)c3n2)CC1 [113(b), 3-{8-(2,6-difluorophenyl)-2-[4-(methylamino)-1-piperidinyl]-7-oxo-7,8-dihydropyrido[2,3-d]pyrimidin-4-yl}-4-methyl-N-(1-methylethyl)benzamide]",statistically nonsignificant inhibition of neutrophilia
15,"Cc1ccc(C(=O)Nc2nccs2)cc1-c1nc(NCCCNC(C)C)nc2c1ccc(=O)n2-c1c(F)cccc1F [Example 101, 3-[8-(2,6-difluorophenyl)-2-({3-[(1-methylethyl)amino]propyl}amino)-7-oxo-7,8-dihydropyrido[2,3-d]pyrimidin-4-yl]-4-methyl-N-1,3-thiazol-2-ylbenzamide]",statistically significant inhibition of neutrophilia
16,"CCCNC(=O)c1ccc(C)c(-c2nc(N(C)CCCN(C)C)nc3c2ccc(=O)n3-c2c(F)cccc2F)c1 [Example 104, 3-{8-(2,6-difluorophenyl)-2-[[3-(dimethylamino)propyl](methyl)amino]-7-oxo-7,8-dihydropyrido[2,3-d]pyrimidin-4-yl}-4-methyl-N-propylbenzamide]",statistically significant inhibition of neutrophilia
17,Cc1ccc(C(=O)NC2CC2)cc1-c1nc(NCCN(C)C)nc2c1ccc(=O)n2-c1c(F)cccc1F [Example 25],statistically nonsignificant inhibition of neutrophilia
18,"Cc1ccc(C(=O)NCCc2ccccc2)cc1-c1nc(NC2CC(C)(C)NC(C)(C)C2)nc2c1ccc(=O)n2-c1c(F)cccc1F [Example 28, 3-{8-(2,6-difluorophenyl)-7-oxo-2-[(2,2,6,6-tetramethyl-4-piperidinyl)amino]-7,8-dihydropyrido[2,3-d]pyrimidin-4-yl}-4-methyl-N-(2-phenylethyl)benzamide]",statistically nonsignificant inhibition of neutrophilia
19,"Cc1ccc(C(=O)Nc2nccs2)cc1-c1nc(NCCN(C)C)nc2c1ccc(=O)n2-c1c(F)cccc1F [Example 109, 3-(8-(2,6-difluorophenyl)-2-{[2-(dimethylamino)ethyl]amino}-7-oxo-7,8-dihydropyrido[2,3-d]pyrimidin-4-yl)-4-methyl-N-1,3-thiazol-2-ylbenzamide]",statistically significant inhibition of neutrophilia
20,"Cc1ccc(C(=O)NCc2ccccc2)cc1-c1nc(N2CCC(N)CC2)nc2c1ccc(=O)n2-c1c(F)cccc1F [Example 71, 3-[2-(4-amino-1-piperidinyl)-8-(2,6-difluorophenyl)-7-oxo-7,8-dihydropyrido[2,3-d]pyrimidin-4-yl]-4-methyl-N-(phenylmethyl)benzamide]",statistically nonsignificant inhibition of neutrophilia
21,CCN(CC)CCCNc1nc(-c2cc(C(=O)N[C@H](C)C(C)C)ccc2C)c2ccc(=O)n(-c3c(F)cccc3F)c2n1 [Example 130],statistically nonsignificant inhibition of neutrophilia

# Reference: patent publication US8354416B2 (Glaxo Group Limited, priority 2005, dated 2013)
